The record followed here is patent US10640495B2, “Heterocycle derivatives having TrkA inhibitory activity” (Shionogi & Co., Ltd., priority 2015, dated 2020).

In one assay the target is human TrkA (Homo sapiens (Human), UniProt P04629). Briefly: Human TrkA inhibition assay (Test Example 2). It is filed as biochemical. To be noted: Table 152, human TrkA inhibition; read-out: IC50_nM. In a few lines: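 Mobility-shift readout of phosphorylated versus unphosphorylated fluorescent peptide gave conversion ratio, normalized to DMSO and no-enzyme wells; IC50 by logistic fit of 10- or 15-point 3-fold dilutions. Conditions: 1 nmol/L enzyme, 15 min compound preincubation, then 500 μmol/L ATP plus 1.5 μmol/L peptide, 120 min, 37 °C.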
Sequence of human TrkA (P04629 440-796): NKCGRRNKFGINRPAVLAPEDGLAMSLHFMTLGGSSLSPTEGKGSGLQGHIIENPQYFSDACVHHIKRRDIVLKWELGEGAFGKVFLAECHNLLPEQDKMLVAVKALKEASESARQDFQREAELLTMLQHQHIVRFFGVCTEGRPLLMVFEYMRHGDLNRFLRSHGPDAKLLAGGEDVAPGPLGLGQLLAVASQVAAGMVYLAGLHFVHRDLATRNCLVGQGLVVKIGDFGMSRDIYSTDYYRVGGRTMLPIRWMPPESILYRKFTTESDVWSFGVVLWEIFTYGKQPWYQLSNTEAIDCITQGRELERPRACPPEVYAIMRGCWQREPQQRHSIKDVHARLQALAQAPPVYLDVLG
For the molecule `COCCC1C[C@@H](NC(=O)Nc2c(C)c(-c3ccc4c(cnn4C)c3)nn2-c2ccccc2)[C@H](c2ccccc2)O1` (some centres unmarked) [Compound I-11], the IC50 was < 100 nM.
On to `COCCC1C[C@@H](NC(=O)Nc2c(C)c(-c3ccc(C(=O)OC(C)(C)C)cc3)nn2-c2ccccc2)[C@H](c2ccccc2)O1` (some centres unmarked) [Compound I-13], for which the IC50 was < 100 nM.
Turning to `COCCC1C[C@@H](NC(=O)Nc2c(C)c(-c3ccc(OCc4ccccc4)nc3)nn2-c2ccccc2)[C@H](c2ccccc2)O1` (some centres unmarked) [Compound I-14], the IC50 was < 100 nM.
With `COCCC1C[C@@H](NC(=O)Nc2c(C)c(-c3ccc(C(=O)O)cc3)nn2-c2ccccc2)[C@H](c2ccccc2)O1` (some centres unmarked) [Compound I-15], the IC50 is < 100 nM.
As for `COCCC1C[C@@H](NC(=O)Nc2c(C)c(-c3cnn(C)c3)nn2-c2ccccc2)[C@H](c2ccccc2)O1` (some centres unmarked) [Compound I-16], the IC50 was < 100 nM.
With `COCCC1C[C@H](NC(=O)Nc2c(C)c(-c3cnn(C)c3)nn2-c2ccccc2)[C@@H](c2ccccc2)O1` (some centres unmarked) [Compound I-17], the IC50 was > 1000 nM.

The same assay, now with this note: Table 156, human TrkA inhibition; read-out: IC50.
For the molecule `COCCN1C[C@@H](NC(=O)Nc2c(C)c(OCC3CNCCO3)nn2-c2ccccc2)[C@H](c2ccc(F)c(F)c2)O1` (single isomer, unassigned) [Compound I-575], the IC50 was < 100 nM.
As to `COCCN1C[C@@H](NC(=O)Nc2c(C)c(OCC3CNCCO3)nn2-c2ccccc2)[C@H](c2ccc(F)c(F)c2)O1` (single isomer, unassigned) [Compound I-576], the IC50 is < 100 nM.
Regarding `COCCN1C[C@@H](NC(=O)Nc2c(C)c(OCC3CN(C(C)=O)CCO3)nn2-c2ccccc2)[C@H](c2ccc(F)c(F)c2)O1` (single isomer, unassigned) [Compound I-577], the IC50 was < 100 nM.
On to `COCCN1C[C@@H](NC(=O)Nc2c(C)c(OCC3CN(C(C)=O)CCO3)nn2-c2ccccc2)[C@H](c2ccc(F)c(F)c2)O1` (single isomer, unassigned) [Compound I-578], for which the IC50 was < 100 nM.
Take `COCCN1C[C@@H](NC(=O)Nc2c(C)c(OCC3CN(C)CCO3)nn2-c2ccccc2)[C@H](c2ccc(F)c(F)c2)O1` (single isomer, unassigned) [Compound I-579]: the IC50 is < 100 nM.

Still in this assay, the particulars now being: Table 157, human TrkA inhibition; read-out: IC50.
Take `CCN1C[C@@H](NC(=O)Nc2c(C)c(OC3CN(C)C3)nn2-c2ccccc2)[C@H](c2ccc(F)c(F)c2)O1` (racemic) [Compound I-632]: the IC50 was 100 to 1000 nM.
Same read-out and setting: with `COCCN1C[C@@H](NC(=O)Nc2c(C)c(OCC(N)=O)nn2-c2ccccc2)[C@H](c2ccnc(F)c2)O1` (racemic) [Compound I-633] the figure was < 100 nM; with `CNC(=O)COc1nn(-c2ccccc2)c(NC(=O)N[C@@H]2CN(CCOC)O[C@H]2c2ccnc(F)c2)c1C` (racemic) [Compound I-634], < 100 nM; with `COCCN1C[C@@H](NC(=O)Nc2c(C)c(OCC(=O)NC3CC3)nn2-c2ccccc2)[C@H](c2ccnc(F)c2)O1` (racemic) [Compound I-635], < 100 nM.
Still for that read-out and setting: with `CCN1C[C@@H](NC(=O)Nc2c(C)c(CCN(C)C)nn2-c2ccccc2)[C@H](c2ccc(F)c(F)c2)O1` (racemic) [Compound I-642] the figure was 100 to 1000 nM.
`CCN1C[C@@H](NC(=O)Nc2c(C)c(OCc3cc(=O)ccn3C)nn2-c2ccccc2)[C@H](c2ccc(F)c(F)c2)O1` (racemic) [Compound I-644]: the IC50 was < 100 nM.
On the same count and under the same terms, for `CCN1C[C@@H](NC(=O)Nc2c(C)c(OCC(=O)NC)nn2-c2ccccc2)[C@H](c2ccc(F)c(F)c2)O1` (racemic) [Compound I-646] the value was < 100 nM.
Turning to `CCN1C[C@@H](NC(=O)Nc2c(C)c(OCC(=O)N(C)C)nn2-c2ccccc2)[C@H](c2ccc(F)c(F)c2)O1` (racemic) [Compound I-647], the IC50 was < 100 nM.
Still for that read-out and setting: for `CCN1C[C@@H](NC(=O)Nc2c(C)c(OCC(=O)NC3CC3)nn2-c2ccccc2)[C@H](c2ccc(F)c(F)c2)O1` (racemic) [Compound I-648] the value was < 100 nM; for `CCN1C[C@@H](NC(=O)Nc2c(C)c(OCC(=O)N3CCN(C)CC3)nn2-c2ccccc2)[C@H](c2ccc(F)c(F)c2)O1` (racemic) [Compound I-649], < 100 nM; for `CCN1C[C@@H](NC(=O)Nc2c(C)c(OCC(=O)NCCN(C)C)nn2-c2ccccc2)[C@H](c2ccc(F)c(F)c2)O1` (racemic) [Compound I-650], 100 to 1000 nM.
Regarding `CCN1C[C@@H](NC(=O)Nc2c(C)c(OCC(=O)NCCO)nn2-c2ccccc2)[C@H](c2ccc(F)c(F)c2)O1` (racemic) [Compound I-651], the IC50 was < 100 nM.
`CCN1C[C@@H](NC(=O)Nc2c(C)c(OCC(=O)NCC(C)(C)O)nn2-c2ccccc2)[C@H](c2ccc(F)c(F)c2)O1` (racemic) [Compound I-652]: the IC50 was < 100 nM.
`Cc1c(OCC2CCN(C)CC2)nn(-c2ccccc2)c1NC(=O)N[C@@H]1CN(CC2CC2)O[C@H]1c1ccc(F)c(F)c1` (racemic) [Compound I-653]: the IC50 was < 100 nM.
Turning to `CCCN1C[C@@H](NC(=O)Nc2c(C)c(OCC3CCN(C)CC3)nn2-c2ccccc2)[C@H](c2ccc(F)c(F)c2)O1` (racemic) [Compound I-654], the IC50 was < 100 nM.
As to `CCN1C[C@@H](NC(=O)Nc2c(C)c(OCC(C)(C)O)nn2-c2ccccc2)[C@H](c2ccc(F)c(F)c2)O1` (racemic) [Compound I-656], the IC50 lay in the range of 100 to 1000 nM.
For the molecule `CCN1C[C@@H](NC(=O)Nc2c(C)c(OCC3CNC3)nn2-c2ccccc2)[C@H](c2ccc(F)c(F)c2)O1` (racemic) [Compound I-657], the IC50 is < 100 nM.
As to `CCN1C[C@@H](NC(=O)Nc2c(C)c(OCC3CN(C)C3)nn2-c2ccccc2)[C@H](c2ccc(F)c(F)c2)O1` (racemic) [Compound I-658], the IC50 was < 100 nM.
For `CCN1C[C@@H](NC(=O)Nc2c(C)c(OCCCC(=O)NC)nn2-c2ccccc2)[C@H](c2ccc(F)c(F)c2)O1` (racemic) [Compound I-659], the IC50 was < 100 nM.
With `CCN1C[C@@H](NC(=O)Nc2c(C)c(OCCCN3CCCC3)nn2-c2ccccc2)[C@H](c2ccc(F)c(F)c2)O1` (racemic) [Compound I-661], the IC50 is < 100 nM.
Turning to `CCN1C[C@@H](NC(=O)Nc2c(C)c(OCCCCN(C)C)nn2-c2ccccc2)[C@H](c2ccc(F)c(F)c2)O1` (racemic) [Compound I-662], the IC50 was < 100 nM.
Consider `CCN1C[C@@H](NC(=O)Nc2c(C)c(OCCCC(N)=O)nn2-c2ccccc2)[C@H](c2ccc(F)c(F)c2)O1` (racemic) [Compound I-663], for which the IC50 was < 100 nM.
For `CCN1C[C@@H](NC(=O)Nc2c(C)c(OCCCC(=O)N(C)C)nn2-c2ccccc2)[C@H](c2ccc(F)c(F)c2)O1` (racemic) [Compound I-664], the IC50 was < 100 nM.
Take `CCN1C[C@@H](NC(=O)Nc2c(C)c(OCCCC(=O)NC3CC3)nn2-c2ccccc2)[C@H](c2ccc(F)c(F)c2)O1` (racemic) [Compound I-665]: the IC50 is < 100 nM.
Turning to `CCN1C[C@@H](NC(=O)Nc2c(C)c(OCCCC(=O)N3CCN(C)CC3)nn2-c2ccccc2)[C@H](c2ccc(F)c(F)c2)O1` (racemic) [Compound I-666], the IC50 was < 100 nM.
Same read-out and setting: with `CCN1C[C@@H](NC(=O)Nc2c(C)c(OCCCC(=O)NCCN(C)C)nn2-c2ccccc2)[C@H](c2ccc(F)c(F)c2)O1` (racemic) [Compound I-667] the figure was < 100 nM.
For `CCN1C[C@@H](NC(=O)Nc2c(C)c(OCCCC(=O)NCCO)nn2-c2ccccc2)[C@H](c2ccc(F)c(F)c2)O1` (racemic) [Compound I-668], the IC50 was < 100 nM.
For the molecule `CCN1C[C@@H](NC(=O)Nc2c(C)c(OCCCC(=O)NCC(C)(C)O)nn2-c2ccccc2)[C@H](c2ccc(F)c(F)c2)O1` (racemic) [Compound I-669], the IC50 is < 100 nM.
As for `CCN1C[C@@H](NC(=O)Nc2c(C)c(OCCCCO)nn2-c2ccccc2)[C@H](c2ccc(F)c(F)c2)O1` (racemic) [Compound I-670], the IC50 was < 100 nM.
On the same count and under the same terms, with `CCN1C[C@@H](NC(=O)Nc2c(C)c(OCCC3CCNCC3)nn2-c2ccccc2)[C@H](c2ccc(F)c(F)c2)O1` (racemic) [Compound I-671] the figure was < 100 nM; with `CCN1C[C@@H](NC(=O)Nc2c(C)c(OCCC3CCN(C)CC3)nn2-c2ccccc2)[C@H](c2ccc(F)c(F)c2)O1` (racemic) [Compound I-672], < 100 nM; with `COCCN1C[C@@H](NC(=O)Nc2c(C(F)F)c(C)nn2-c2ccccc2)[C@H](c2ccnc(F)c2)O1` (racemic) [Compound I-673], 100 to 1000 nM.
Still for that read-out and setting: for `CCCN1C[C@@H](NC(=O)Nc2c(C)c(-c3cnc(OC)nc3)nn2-c2ccccc2)[C@H](c2ccc(F)c(F)c2)O1` (racemic) [Compound I-676] the value was < 100 nM; for `CCCCN1C[C@@H](NC(=O)Nc2c(C)c(-c3cnc(OC)nc3)nn2-c2ccccc2)[C@H](c2ccc(F)c(F)c2)O1` (racemic) [Compound I-677], < 100 nM.
Consider `COc1ncc(-c2nn(-c3ccccc3)c(NC(=O)N[C@@H]3CN(CCCO)O[C@H]3c3ccc(F)c(F)c3)c2C)cn1` (racemic) [Compound I-678], for which the IC50 lay within 100 to 1000 nM.

Staying with this assay, now noted: human TrkA 1 nmol/L, ATP 500 μmol/L, 120 min at 37° C.; read-out: IC50 values (TrkA phosphorylation inhibition).
For the molecule `CCN1C[C@@H](NC(=O)Nc2c(C)c(OCC(N)=O)nn2-c2ccccc2)[C@H](c2ccc(F)c(F)c2)O1` (racemic) [Compound I-645], the IC50 came out at 68 nM.
With `CCN1C[C@@H](NC(=O)Nc2c(C)c(C3=CCN(C(=O)CO)CC3)nn2-c2ccccc2)[C@H](c2ccc(F)c(F)c2)O1` (racemic) [Compound I-655], the IC50 turned out to be 5 nM.
Regarding `COCCN1C[C@@H](NC(=O)Nc2c(C(F)(F)F)c(C)nn2-c2ccccc2)[C@H](c2ccnc(F)c2)O1` (racemic) [Compound I-660], the IC50 is 70 nM.
Take `COCCN1C[C@@H](NC(=O)Nc2c(Cl)c(-c3cnc(OC)nc3)nn2-c2ccccc2)[C@H](c2ccnc(F)c2)O1` (racemic) [Compound I-674]: the IC50 was 5.8 nM.
